Data taken from patent US8952024B2, “Herbicidal pyrimidone derivatives” (E I du Pont de Nemours and Company, priority 2009, dated 2015).

Assays:
Type in all cases: in vivo
[1] = tested on: Surinam grass (Brachiaria decumbens); assay: Test B pre-/postemergence plant response; conditions: for Surinam Grass plant response rating (0 to 100 scale): 62 g ai/ha, postemergence, 0 is no effect, 100 is complete control; for Plant response rating, Surinam Grass: Postemergence
Summary of the method: (§1)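 Each species received compound formulated in non-phytotoxic solvent with surfactant, either at planting into a loam and sand blend or as a foliar spray once plants reached 2 to 18 cm in peat-based medium. Plants stayed in the greenhouse 13 to 15 days before visual evaluation against controls, scored 0 (no effect) to 100 (complete control).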

[2] = tested on: bermudagrass (Cynodon dactylon); assay: Test B pre-/postemergence plant response; conditions: for Bermudagrass plant response rating (0 to 100 scale): 62 g ai/ha, postemergence, 0 is no effect, 100 is complete control; for Plant response rating, Bermudagrass: Postemergence
Summary of the method: as §1

[3] = tested on: downy bromegrass (Bromus tectorum); assay: Test B pre-/postemergence plant response; conditions: for Bromegrass, Downy plant response rating (0 to 100 scale): 62 g ai/ha, postemergence, 0 is no effect, 100 is complete control; for Plant response rating, Bromegrass, Downy: Postemergence
Summary of the method: as §1

[4] = tested on: lambsquarters (Chenopodium album); assay: Test B pre-/postemergence plant response; conditions: for Lambsquarters plant response rating (0 to 100 scale): 62 g ai/ha, postemergence, 0 is no effect, 100 is complete control; for Plant response rating, Lambsquarters: Postemergence
Summary of the method: as §1

[5] = tested on: pigweed (Amaranthus retroflexus); assay: Test B pre-/postemergence plant response; conditions: for Pigweed plant response rating (0 to 100 scale): 62 g ai/ha, postemergence, 0 is no effect, 100 is complete control; for Plant response rating, Pigweed: Postemergence
Summary of the method: as §1

[6] = tested on: wheat (Triticum aestivum); assay: Test B pre-/postemergence plant response; conditions: for Wheat plant response rating (0 to 100 scale): 62 g ai/ha, postemergence, 0 is no effect, 100 is complete control; for Plant response rating, Wheat: Postemergence
Summary of the method: as §1

[7] = tested on: woolly cupgrass (Eriochloa villosa); assay: Test B pre-/postemergence plant response; conditions: for Cupgrass, Woolly plant response rating (0 to 100 scale): 62 g ai/ha, postemergence, 0 is no effect, 100 is complete control; for Plant response rating, Cupgrass, Woolly: Postemergence
Summary of the method: as §1

[8] = tested on: yellow nutsedge (Cyperus esculentus); assay: Test B pre-/postemergence plant response; conditions: for Nutsedge, Yellow plant response rating (0 to 100 scale): 62 g ai/ha, postemergence, 0 is no effect, 100 is complete control; for Plant response rating, Nutsedge, Yellow: Postemergence
Summary of the method: as §1

[9] = tested on: barnyardgrass (Echinochloa crus-galli); assay: Test B flooded paddy test; conditions: for Plant response rating, Flood, Barnyardgrass: 250 g ai/ha, flooded paddy test, visual rating on 0 to 100 scale (0 no effect, 100 complete control) after 13 to 15 days; for Plant response rating, Barnyardgrass: Flood (flooded paddy test), 13 to 15 days
Summary of the method: (§2)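 Each compound is added to standing floodwater (3 cm above soil, maintained) in pots of 2-leaf-stage plants; greenhouse exposure lasts 13–15 d before visual comparison with controls on a 0–100 control scale.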

[10] = tested on: ducksalad (Heteranthera limosa); assay: Test B flooded paddy test; conditions: for Plant response rating, Flood, Ducksalad: 250 g ai/ha, flooded paddy test, visual rating on 0 to 100 scale (0 no effect, 100 complete control) after 13 to 15 days; for Plant response rating, Ducksalad: Flood (flooded paddy test), 13 to 15 days
Summary of the method: as §2

[11] = tested on: rice (Oryza sativa); assay: Test B flooded paddy test; conditions: for Plant response rating, Flood, Rice: 250 g ai/ha, flooded paddy test, visual rating on 0 to 100 scale (0 no effect, 100 complete control) after 13 to 15 days; for Plant response rating, Rice: Flood (flooded paddy test), 13 to 15 days
Summary of the method: as §2

[12] = tested on: umbrella sedge (Cyperus difformis); assay: Test B flooded paddy test; conditions: for Plant response rating, Flood, Sedge, Umbrella: 250 g ai/ha, flooded paddy test, visual rating on 0 to 100 scale (0 no effect, 100 complete control) after 13 to 15 days; for Plant response rating, Sedge, Umbrella: Flood (flooded paddy test), 13 to 15 days
Summary of the method: as §2

[13] = 31 g ai/ha, 0 to 100 scale (0 no effect, 100 complete control)
[14] = 125 g ai/ha, scale 0 to 100 (0 no effect, 100 complete control)
[15] = 250 g ai/ha, scale 0 to 100 (0 no effect, 100 complete control), 13 to 15 days
[16] = 62 g ai/ha, scale of 0 to 100 where 0 is no effect and 100 is complete control
[17] = 125 g ai/ha, scale 0 to 100, 0 is no effect, 100 is complete control
[18] = Flood, 31 g ai/ha, scale 0 to 100 (0 no effect, 100 complete control)

CCCn1c(-c2cccc(Br)c2)ncc(C(=O)C2=C(O)CCCC2=O)c1=O [Compound 141]
Surinam Grass plant response rating (0 to 100 scale) ([1]; 13 to 15 days): 65 | Plant response rating, Surinam Grass [1, 13]: 40 | Plant response rating, Surinam Grass [1, 14]: 70 | Plant response rating, Surinam Grass [1, 15]: 75 | Bermudagrass plant response rating (0 to 100 scale) ([2]; 13 to 15 days): 85 | Plant response rating, Bermudagrass [2, 13]: 80 | Plant response rating, Bermudagrass [2, 14]: 85 | Plant response rating, Bermudagrass [2, 15]: 90 | Bromegrass, Downy plant response rating (0 to 100 scale) ([3]; 13 to 15 days): 5 | Plant response rating, Bromegrass, Downy [3, 13]: 0 | Plant response rating, Bromegrass, Downy [3, 14]: 10 | Plant response rating, Bromegrass, Downy [3, 15]: 45 | Lambsquarters plant response rating (0 to 100 scale) ([4]; 13 to 15 days): 80 | Plant response rating, Lambsquarters [4, 13]: 80 | Plant response rating, Lambsquarters [4, 14]: 98 | Plant response rating, Lambsquarters [4, 15]: 100 | Pigweed plant response rating (0 to 100 scale) ([5]; 13 to 15 days): 75 | Plant response rating, Pigweed [5, 13]: 60 | Plant response rating, Pigweed [5, 14]: 95 | Plant response rating, Pigweed [5, 15]: 98 | Wheat plant response rating (0 to 100 scale) ([6]; 13 to 15 days): 5 | Plant response rating, Wheat [6, 13]: 0 | Plant response rating, Wheat [6, 14]: 5 | Plant response rating, Wheat [6, 15]: 10 | Cupgrass, Woolly plant response rating (0 to 100 scale) ([7]; 13 to 15 days): 65 | Plant response rating, Cupgrass, Woolly [7, 13]: 65 | Plant response rating, Cupgrass, Woolly [7, 14]: 65 | Plant response rating, Cupgrass, Woolly [7, 15]: 70 | Nutsedge, Yellow plant response rating (0 to 100 scale) ([8]; 13 to 15 days): 10 | Plant response rating, Nutsedge, Yellow [8, 13]: 0 | Plant response rating, Nutsedge, Yellow [8, 14]: 60 | Plant response rating, Nutsedge, Yellow [8, 15]: 60 | Plant response rating, Flood, Barnyardgrass [9]: 50 | Plant response rating, Barnyardgrass [9, 16]: 20 | Plant response rating, Flood, Ducksalad [10]: 85 | Plant response rating, Ducksalad [10, 16]: 75 | Plant response rating, Flood, Rice [11]: 35 | Plant response rating, Rice [11, 16]: 0 | Plant response rating, Flood, Sedge, Umbrella [12]: 85 | Plant response rating, Sedge, Umbrella [12, 16]: 80

CCCCn1c(-c2cccc(Cl)c2)ncc(C(=O)C2=C(O)CCCC2=O)c1=O [Compound 146]
Surinam Grass plant response rating (0 to 100 scale) ([1]; 13 to 15 days): 65 | Plant response rating, Surinam Grass [1, 13]: 65 | Plant response rating, Surinam Grass [1, 14]: 75 | Plant response rating, Surinam Grass [1, 15]: 75 | Bermudagrass plant response rating (0 to 100 scale) ([2]; 13 to 15 days): 90 | Plant response rating, Bermudagrass [2, 13]: 85 | Plant response rating, Bermudagrass [2, 14]: 100 | Plant response rating, Bermudagrass [2, 15]: 100 | Bromegrass, Downy plant response rating (0 to 100 scale) ([3]; 13 to 15 days): 5 | Plant response rating, Bromegrass, Downy [3, 13]: 0 | Plant response rating, Bromegrass, Downy [3, 14]: 10 | Plant response rating, Bromegrass, Downy [3, 15]: 35 | Lambsquarters plant response rating (0 to 100 scale) ([4]; 13 to 15 days): 98 | Plant response rating, Lambsquarters [4, 13]: 95 | Plant response rating, Lambsquarters [4, 14]: 100 | Plant response rating, Lambsquarters [4, 15]: 100 | Pigweed plant response rating (0 to 100 scale) ([5]; 13 to 15 days): 98 | Plant response rating, Pigweed [5, 13]: 95 | Plant response rating, Pigweed [5, 14]: 100 | Plant response rating, Pigweed [5, 15]: 100 | Wheat plant response rating (0 to 100 scale) ([6]; 13 to 15 days): 0 | Plant response rating, Wheat [6, 13]: 0 | Plant response rating, Wheat [6, 14]: 15 | Plant response rating, Wheat [6, 15]: 45 | Cupgrass, Woolly plant response rating (0 to 100 scale) ([7]; 13 to 15 days): 65 | Plant response rating, Cupgrass, Woolly [7, 13]: 60 | Plant response rating, Cupgrass, Woolly [7, 14]: 65 | Plant response rating, Cupgrass, Woolly [7, 15]: 75 | Nutsedge, Yellow plant response rating (0 to 100 scale) ([8]; 13 to 15 days): 10 | Plant response rating, Nutsedge, Yellow [8, 13]: 5 | Plant response rating, Nutsedge, Yellow [8, 14]: 20 | Plant response rating, Nutsedge, Yellow [8, 15]: 40 | Plant response rating, Flood, Barnyardgrass [9]: 30 | Plant response rating, Barnyardgrass [9, 16]: 0 | Plant response rating, Barnyardgrass [9, 17]: 0 | Barnyardgrass plant response rating [9, 18]: 0 | Plant response rating, Flood, Ducksalad [10]: 100 | Plant response rating, Ducksalad [10, 16]: 60 | Plant response rating, Ducksalad [10, 17]: 80 | Ducksalad plant response rating [10, 18]: 0 | Plant response rating, Flood, Rice [11]: 35 | Plant response rating, Rice [11, 16]: 0 | Plant response rating, Rice [11, 17]: 0 | Rice plant response rating [11, 18]: 0 | Plant response rating, Flood, Sedge, Umbrella [12]: 90 | Plant response rating, Sedge, Umbrella [12, 16]: 50 | Plant response rating, Sedge, Umbrella [12, 17]: 80 | Sedge, Umbrella plant response rating [12, 18]: 0
